# “And” between values parts separate entries of the source, which are not always exact repeats. Equal entries are not always repeated.
# What was measured:
# [1] = target: T1, Inhibitor of nuclear factor kappa-B kinase subunit epsilon (Homo sapiens) (UniProt Q14164); settings: at 1 µM
# T1 sequence (whole entry): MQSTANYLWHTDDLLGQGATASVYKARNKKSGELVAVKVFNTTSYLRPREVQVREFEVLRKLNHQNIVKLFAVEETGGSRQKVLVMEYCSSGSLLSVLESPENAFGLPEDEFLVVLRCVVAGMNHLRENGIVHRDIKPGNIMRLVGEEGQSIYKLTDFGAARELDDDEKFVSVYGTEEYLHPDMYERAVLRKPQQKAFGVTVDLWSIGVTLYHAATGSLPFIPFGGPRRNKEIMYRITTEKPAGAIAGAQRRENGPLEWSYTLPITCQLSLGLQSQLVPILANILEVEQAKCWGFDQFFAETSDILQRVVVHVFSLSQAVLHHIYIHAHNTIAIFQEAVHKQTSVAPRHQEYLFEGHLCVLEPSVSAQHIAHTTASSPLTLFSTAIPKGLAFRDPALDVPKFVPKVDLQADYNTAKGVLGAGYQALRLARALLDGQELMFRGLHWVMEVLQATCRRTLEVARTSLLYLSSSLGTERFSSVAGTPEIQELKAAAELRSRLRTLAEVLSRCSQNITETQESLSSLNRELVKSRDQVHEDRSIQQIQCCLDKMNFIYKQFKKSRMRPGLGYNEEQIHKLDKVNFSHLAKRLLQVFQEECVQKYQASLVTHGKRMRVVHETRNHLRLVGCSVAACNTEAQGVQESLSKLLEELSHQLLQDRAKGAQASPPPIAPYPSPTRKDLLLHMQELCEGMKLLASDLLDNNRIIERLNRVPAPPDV
# [2] = target: T2, Serine/threonine-protein kinase TBK1 (Homo sapiens) (UniProt Q9UHD2); settings: at 1 µM
# T2 sequence (whole entry): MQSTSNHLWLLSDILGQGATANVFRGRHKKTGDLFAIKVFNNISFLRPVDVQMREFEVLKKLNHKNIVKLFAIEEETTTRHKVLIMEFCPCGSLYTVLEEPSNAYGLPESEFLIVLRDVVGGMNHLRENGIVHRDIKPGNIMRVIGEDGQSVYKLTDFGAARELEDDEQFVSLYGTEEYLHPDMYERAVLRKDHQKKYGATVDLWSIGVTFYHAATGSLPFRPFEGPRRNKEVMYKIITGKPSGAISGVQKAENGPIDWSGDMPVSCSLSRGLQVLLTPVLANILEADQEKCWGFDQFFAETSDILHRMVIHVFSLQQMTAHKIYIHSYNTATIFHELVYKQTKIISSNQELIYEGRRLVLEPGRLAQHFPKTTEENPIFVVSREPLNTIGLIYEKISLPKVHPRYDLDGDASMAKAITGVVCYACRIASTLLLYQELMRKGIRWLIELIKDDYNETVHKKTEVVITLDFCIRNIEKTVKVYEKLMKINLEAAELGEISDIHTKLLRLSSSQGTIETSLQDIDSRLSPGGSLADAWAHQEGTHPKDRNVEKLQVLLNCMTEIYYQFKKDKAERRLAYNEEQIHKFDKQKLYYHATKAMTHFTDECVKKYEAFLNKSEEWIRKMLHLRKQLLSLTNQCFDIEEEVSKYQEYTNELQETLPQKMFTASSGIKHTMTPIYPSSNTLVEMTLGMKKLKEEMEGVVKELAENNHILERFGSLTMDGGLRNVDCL
# [3] = target: T3, Tyrosine-protein kinase Mer (Homo sapiens) (UniProt Q12866); settings: at 10 µM
# T3 sequence (whole entry): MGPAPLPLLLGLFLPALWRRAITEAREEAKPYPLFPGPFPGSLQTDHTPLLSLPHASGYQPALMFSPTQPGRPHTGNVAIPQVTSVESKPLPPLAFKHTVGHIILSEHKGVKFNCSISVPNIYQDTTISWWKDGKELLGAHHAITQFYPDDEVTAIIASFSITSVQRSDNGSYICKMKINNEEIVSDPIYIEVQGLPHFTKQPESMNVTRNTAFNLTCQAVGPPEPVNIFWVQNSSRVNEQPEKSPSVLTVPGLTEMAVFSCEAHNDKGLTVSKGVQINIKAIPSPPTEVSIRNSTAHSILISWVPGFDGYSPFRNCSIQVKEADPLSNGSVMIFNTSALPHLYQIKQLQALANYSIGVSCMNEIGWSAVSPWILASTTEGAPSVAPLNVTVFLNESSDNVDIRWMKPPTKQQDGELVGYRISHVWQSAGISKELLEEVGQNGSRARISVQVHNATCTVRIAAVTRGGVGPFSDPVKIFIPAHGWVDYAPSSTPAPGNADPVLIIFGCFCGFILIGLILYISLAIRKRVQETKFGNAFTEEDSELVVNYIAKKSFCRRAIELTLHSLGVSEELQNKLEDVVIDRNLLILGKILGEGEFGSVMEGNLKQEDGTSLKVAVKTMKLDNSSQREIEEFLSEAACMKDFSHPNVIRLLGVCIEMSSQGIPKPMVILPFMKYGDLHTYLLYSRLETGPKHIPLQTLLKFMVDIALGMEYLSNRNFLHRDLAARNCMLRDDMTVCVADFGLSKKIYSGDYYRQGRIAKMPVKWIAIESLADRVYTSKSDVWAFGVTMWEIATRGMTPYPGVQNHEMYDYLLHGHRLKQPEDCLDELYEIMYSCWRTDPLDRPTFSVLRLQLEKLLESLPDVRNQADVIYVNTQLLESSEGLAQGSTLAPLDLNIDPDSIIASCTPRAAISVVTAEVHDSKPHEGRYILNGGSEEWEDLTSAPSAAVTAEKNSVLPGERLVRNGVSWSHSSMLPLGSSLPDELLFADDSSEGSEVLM
inhibition [1],inhibition [2],inhibition [3],Compound
7% and 6%,23% and 19%,67%,COc1cc2c(cc1Nc1nc(Nc3ccsc3C(N)=O)c3cc[nH]c3n1)N(C(=O)CN(C)C)CCC2
-4% and -2%,-3% and -2%,5%,COc1ccc(COc2ccc(Cc3cnc(N)nc3N)cc2OC)cc1
13% and 12%,28% and 24%,10%,CCCN1CCC=C(c2ccc(Nc3nc(Nc4ccccc4C(N)=O)c4cc[nH]c4n3)c(C)c2)C1
25% and 24%,29% and 20%,2%,CS(=O)(=O)Nc1ccc(N/C=C2\C(=O)Nc3ccccc32)cc1
0% and 3%,12%,10%,COc1cc2ncn(-c3cc(OCc4ccccc4C(F)(F)F)c(C(N)=O)s3)c2cc1OC
23% and 21%,29% and 33%,-3%,c1cnn2ncc(-c3ccnc(Nc4ccc5c(c4)OCCO5)n3)c2c1
-2% and 0%,1% and -2%,-1%,CCC(=O)Nc1ccc(C)c(-c2ccc(C(=O)NCC3CC3)cc2)c1
0% and -1%,4% and 2%,-7%,CNC(=O)c1cc(-c2ccc(F)cc2)cc(-c2ccc(S(=O)(=O)N3CCCC3)cc2)c1N
2%,1% and 0%,23%,CN(C)CCCn1c(-c2nonc2N)nc2cnccc21
4%,0% and 2%,-7%,CN1CCC(n2cnc(-c3ccc(F)cc3)c2-c2ccnc(N)n2)CC1
-2% and 2%,-3% and -5%,6%,Fc1ccc(-c2ncn(C3CCNCC3)c2-c2ccnc(Oc3ccc4c(c3)OCO4)n2)cc1
1%,1% and 0%,0%,COc1ccc(-c2nn3ncccc3c2-c2ccnc(Nc3ccc4c(c3)OCCO4)n2)cc1
-1% and 2%,-3% and 0%,77%,COc1ccc2cc(-c3c(-c4ccncc4)nc(-c4ccc([S+](C)[O-])cc4)n3C)ccc2c1 (stereo not given)
-1%,12% and 7%,8%,CN(C)C(=O)O[C@@H]1CN[C@@H](C#Cc2cc3ncnc(Nc4ccc(OCc5cccc(F)c5)c(Cl)c4)c3s2)C1
90% and 88%,103% and 101%,2%,COc1cc2ncn(-c3cc(OCc4ccccc4S(C)(=O)=O)c(C#N)s3)c2cc1OC
1% and -2%,-3% and 0%,11%,NS(=O)(=O)c1ccc(-c2ccc3c(NC(=O)C4CC4)n[nH]c3c2)cc1
-3% and -2%,-5%,-5%,Fc1ccc(Nc2nccc(-c3c(-c4ccc(C(F)(F)F)cc4)nn4ncccc34)n2)cc1F
8% and 7%,1%,-2%,CCS(=O)(=O)c1ccc(OC)c(Nc2nccc(N(C)c3ccc4c(C)n[nH]c4c3)n2)c1
13%,19% and 17%,-4%,CN(c1ccc(NC(=O)Nc2c(Cl)cccc2Cl)cc1)c1ccnc(Nc2cccc(CS(C)(=O)=O)c2)n1
1%,3% and 2%,0%,Fc1ccc(-c2ncn(C3CCNCC3)c2-c2ccnc(Oc3ccc(Oc4ccccc4)cc3)n2)cc1

inhibition [1],inhibition [2],inhibition [3],Compound
0%,-1%,21%,Fc1ccc(-c2ncn(CCCN3CCOCC3)c2-c2ccncc2)cc1
-2% and -1%,-2% and -4%,1%,FC(F)(F)CNc1nccc(-c2cnn3ncccc23)n1
-1% and -2%,-2% and -3%,-5%,COc1ccc2cc(-c3c(-c4ccncc4)nc(-c4ccc([S+](C)[O-])cc4C)n3C)ccc2c1 (stereo not given)
-1% and -2%,0% and 3%,31%,Fc1ccc(-c2ncn(C3CCNCC3)c2-c2ccnc(Oc3ccccc3)n2)cc1
0% and 1%,1% and 4%,38%,Cc1cccc(Nc2ncc(-c3ccccc3)o2)c1
7% and 8%,-3% and -6%,2%,Nc1ncnc2occ(-c3ccc(NC(=O)Nc4cc(C(F)(F)F)cc(C(F)(F)F)c4)cc3)c12
-2% and -1%,-4% and -2%,-5%,COc1ccc(-c2cc(-c3c[nH]nc3-c3ccccn3)ccn2)cc1
3%,5% and 2%,88%,CS(=O)(=O)CCNCc1ccoc1-c1ccc2ncnc(Nc3ccc(OCc4ccccc4)cc3)c2c1
7% and 10%,17% and 18%,-6%,Cn1cc(C=C2C(=O)Nc3cccnc32)c2ccccc21
1% and 2%,7% and 0%,67%,[O-][S+]1CCN(Cc2ccc(-c3ccc4ncnc(Nc5ccc(OCc6cccc(F)c6)c(Cl)c5)c4c3)o2)CC1
37% and 39%,40% and 43%,1%,O=C1Nc2ccc(-c3cccnc3)cc2C1=Cc1cc(Br)c(O)c(Br)c1
0% and 2%,1% and -2%,6%,Cc1ccc(O)cc1Nc1ccnc2ccc(S(C)(=O)=O)cc12
3% and 2%,3% and 6%,6%,NC(=O)c1sc(-n2cnc3cc(C(F)(F)F)ccc32)cc1OCc1ccccc1Br
-1% and -3%,-1%,3%,Oc1cccc(-c2nc(-c3ccccc3)[nH]c2-c2ccncc2)c1
-1%,2% and 0%,-4%,O=C(Nc1n[nH]c2cc(-c3ccccc3)ccc12)C1CC1
22% and 20%,30% and 27%,-2%,O=C1Nc2ccccc2/C1=C/Nc1ccc2[nH]c(=O)[nH]c2c1
2% (2×) and 1%,3% [middle of 4 runs],15% and 7%,CN1CCC(C(=O)Nc2n[nH]c3nc(-c4ccc(O)cc4)c(Br)cc23)CC1
2% and 4%,18% and 9%,13%,Nc1nccc(C#Cc2cncnc2Nc2ccc(OCc3cccc(F)c3)c(Cl)c2)n1
97%,65% and 66%,-4%,CCn1c(-c2nonc2N)nc2c(C#CC(C)(C)O)ncc(OC[C@@H]3CCCN3)c21
-4% and -3%,-2% and -3%,3%,Cc1ccc(-c2cc3c(NC(=O)C4CC4)ncnc3o2)cc1

# Source: ChEMBL document CHEMBL2007661, “Compounds: GSK PKIS; Assays: UNC Frye lab” (2012)
